In patent US20180208605A1, “Substituted Aza Compounds as IRAK-4 Inhibitors” (AURIGENE DISCOVERY TECHNOLOGIES LIMITED, priority 2015, published 2018) one finds inhibition data, which are given here for 23 molecules.

Structures can show the parent of a compound that is named as a salt. Where two headings read alike, the source gives them in different places.

This experiment has as its target T1, recombinant IRAK-4 kinase (Homo sapiens, UniProt Q9NWZ3).
T1 construct: purchased Millipore, USA
T1 sequence (Q9NWZ3 1-460): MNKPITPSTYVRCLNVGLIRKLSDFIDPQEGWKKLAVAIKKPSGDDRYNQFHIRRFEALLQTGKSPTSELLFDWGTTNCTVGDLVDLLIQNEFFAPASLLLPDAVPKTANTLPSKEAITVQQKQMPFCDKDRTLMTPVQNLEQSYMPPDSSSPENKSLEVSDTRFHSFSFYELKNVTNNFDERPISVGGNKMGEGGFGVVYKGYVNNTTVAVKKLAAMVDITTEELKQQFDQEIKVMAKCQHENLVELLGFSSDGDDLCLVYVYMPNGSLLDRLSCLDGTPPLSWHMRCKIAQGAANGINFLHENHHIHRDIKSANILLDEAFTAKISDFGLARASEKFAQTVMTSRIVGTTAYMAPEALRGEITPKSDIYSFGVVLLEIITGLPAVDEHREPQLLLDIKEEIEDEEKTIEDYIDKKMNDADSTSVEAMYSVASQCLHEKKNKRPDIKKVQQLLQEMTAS
Briefly: IRAK-4 Biochemical Assay (TR-FRET, percent inhibition). The method, then:
Compounds were tested for their potential to inhibit IRAK-4 enzyme in a TR-FRET assay using recombinant IRAK-4 kinase from Millipore, USA. The assay buffer was 50 mM Tris-HCl pH 7.5, 20 mM MgCl2, 1 mM EGTA, 2 mM DTT, 3 mM MnCl2 and 0.01% Tween 20.5 ng of IRAK-4 kinase was used for the assay. After pre-incubation of enzyme with test compound for 30 minutes at room temperature, a substrate mixture containing 100 nM Biotin Histone H3 (Millipore, USA) and 20 μM ATP (Sigma, USA) was added and the reaction was incubated for 30 min. Post incubation, the reaction was stopped by the addition of stop mix containing 40 mM EDTA, 1 nM of Europium-Anti-Phospho-Histone H3 (Ser10) antibody (Perkin Elmer, USA) and 20 nM SureLight Allophycocyanin-Streptavidin (Perkin Elmer, USA). The fluorescence emission at 615 nm and 665 nm were measured at an excitation of 340 nm and the percent inhibition was estimated from the ratio of the fluorescence intensities [(F665/F615)×10000].
(In general: In TR-FRET formats the signal depends on donor and acceptor labels being close together.)

[1] abbreviates: read-out: % inhibition of IRAK-4 @0.1 μM, compound at 0.1 μM, TR-FRET, 20 μM ATP, 100 nM Biotin Histone H3.
Setting [2] is: read-out: % inhibition of IRAK-4 @ 1 μM, compound at 1 μM, TR-FRET, 20 μM ATP, 100 nM Biotin Histone H3.

As to `O=C(Nc1cc2oc(N3CCOCC3)nc2nc1N1CC[C@@H](O)C1)c1cnn2cccnc12` [Example 25, (R)—N-(5-(3-hydroxypyrrolidin-1-yl)-2-morpholinooxazolo[4,5-b]pyridin-6-yl)pyrazolo[1,5-a]pyrimidine-3-carboxamide], the inhibition (commonly the drop in the measured response relative to a control, in per cent) at 0.1 µM under setting [1] came to 55%. Also, the inhibition at 1 µM under setting [2] came to 96%.

Consider `N[C@H]1CCN(c2cccc(C(=O)Nc3cc4sc(N5CCOCC5)nc4nc3N3CCCCC3)n2)C1` [Example 26, (S)-6-(3-aminopyrrolidin-1-yl)-N-(2-morpholino-5-(piperidin-1-yl)thiazolo[4,5-b]pyridin-6-yl)picolinamide], for which, under setting [1], the inhibition at 0.1 µM is 87%. Besides, the inhibition at 1 µM under setting [2] came out at 92%.

As for `NCC(=O)N[C@H]1CCN(c2cccc(C(=O)Nc3cc4sc(N5CCOCC5)nc4nc3N3CCCCC3)n2)C1` [Example 27, (S)-6-(3-(2-aminoacetamido)pyrrolidin-1-yl)-N-(2-morpholino-5-(piperidin-1-yl)thiazolo[4,5-b]pyridin-6-yl)picolinamide], under setting [1], the inhibition at 0.1 µM came out at 95%. For the same molecule, under setting [2], the inhibition at 1 µM is 97%.

For `O=C(Nc1cc2sc(N3CCOCC3)nc2nc1N1CCC[C@@H](O)C1)c1cccc(N2CC[C@H](O)C2)n1` [Example 28, N-(5-((R)-3-hydroxypiperidin-1-yl)-2-morpholinothiazolo[4,5-b]pyridin-6-yl)-6-((S)-3-hydroxypyrrolidin-1-yl)picolinamide], the inhibition at 0.1 µM under setting [1] came out at 90%. Moreover, under setting [2], the inhibition at 1 µM is 93%.

For `O=C(Nc1cc2sc(N3CCOCC3)nc2nc1N1CCCCC1)c1cccc(N2CCC[C@H](O)C2)n1` [Example 29, (S)-6-(3-hydroxypiperidin-1-yl)-N-(2-morpholino-5-(piperidin-1-yl)thiazolo[4,5-b]pyridin-6-yl)picolinamide], under setting [1], the inhibition at 0.1 µM stood at 98%. Besides, the inhibition at 1 µM under setting [2] was found to be 99%.

Regarding `O=C(Nc1cc2sc(N3CCOCC3)nc2nc1N1CCCCC1)c1cccc(N2CCC[C@@H](O)C2)n1` [Example 30, (R)-6-(3-hydroxypiperidin-1-yl)-N-(2-morpholino-5-(piperidin-1-yl)thiazolo[4,5-b]pyridin-6-yl)picolinamide], the inhibition at 0.1 µM under setting [1] amounted to 98%. Further, under setting [2], the inhibition at 1 µM came out at 99%.

For the molecule `COC1CCN(c2cccc(C(=O)Nc3cc4sc(N5CCOCC5)nc4nc3N3CCCCC3)n2)CC1` [Example 31, 6-(4-methoxypiperidin-1-yl)-N-(2-morpholino-5-(piperidin-1-yl)thiazolo[4,5-b]pyridin-6-yl)picolinamide], the inhibition at 0.1 µM under setting [1] stood at 90%. Under setting [2], the inhibition at 1 µM was found to be 98%.

For `O=C(Nc1cc2sc(N3CCOCC3)nc2nc1N1CCCCC1)c1cccc(N2CCC(CO)CC2)n1` [Example 32, 6-(4-(hydroxymethyl)piperidin-1-yl)-N-(2-morpholino-5-(piperidin-1-yl)thiazolo[4,5-b]pyridin-6-yl)picolinamide], under setting [1], the inhibition at 0.1 µM stood at 93%. Further, under setting [2], the inhibition at 1 µM came to 95%.

Take `O=C(Nc1cc2sc(N3CCOCC3)nc2nc1N1CCCCC1)c1cccc(N2CCO[C@@H](CO)C2)n1` [Example 33, (R)-6-(2-(hydroxymethyl)morpholino)-N-(2-morpholino-5-(piperidin-1-yl)thiazolo[4,5-b]pyridin-6-yl)picolinamide]: the inhibition at 0.1 µM under setting [1] came out at 95%. The inhibition at 1 µM under setting [2] turned out to be 97%.

For the molecule `O=C(Nc1cc2sc(N3CCOCC3)nc2nc1N1CCCCC1)c1cccc(N2CC[C@@H](O)C2)n1` [Example 34, (R)-6-(3-hydroxypyrrolidin-1-yl)-N-(2-morpholino-5-(piperidin-1-yl)thiazolo[4,5-b]pyridin-6-yl)picolinamide], the inhibition at 0.1 µM under setting [1] came out at 97%. Further, under setting [2], the inhibition at 1 µM is 99%.

As for `O=C(Nc1cc2sc(N3CCOCC3)nc2nc1N1CCCCC1)c1cccc(N2CCC(CCO)CC2)n1` [Example 35, 6-(4-(2-hydroxyethyl)piperidin-1-yl)-N-(2-morpholino-5-(piperidin-1-yl)thiazolo[4,5-b]pyridin-6-yl)picolinamide], the inhibition at 0.1 µM under setting [1] is 92%. Under setting [2], the inhibition at 1 µM amounted to 95%.

Regarding `NCC(=O)O[C@H]1CCN(c2cccc(C(=O)Nc3cc4sc(N5CCOCC5)nc4nc3N3CCCCC3)n2)C1` [Example 36, (S)-1-(6-((2-morpholino-5-(piperidin-1-yl)thiazolo[4,5-b]pyridin-6-yl)carbamoyl)pyridin-2-yl)pyrrolidin-3-ylglycinate 2,2,2-trifluoroacetate], the inhibition at 0.1 µM under setting [1] stood at 94%. In addition, the inhibition at 1 µM under setting [2] is 99%.

Consider `O=C(Nc1cc2sc(N3CCOCC3)nc2nc1N1CCCCC1)c1cccc(NCC2CCOCC2)n1` [Example 37, N-(2-morpholino-5-(piperidin-1-yl)thiazolo[4,5-b]pyridin-6-yl)-6-(((tetrahydro-2H-pyran-4-yl)methyl)amino)picolinamide], for which the inhibition at 0.1 µM under setting [1] came out at 75%. Further, the inhibition at 1 µM under setting [2] turned out to be 95%.

With `O=C(Nc1cc2sc(N3CCOCC3)nc2nc1N1CCC[C@@H](O)C1)c1cccc(N2CCC(O)CC2)n1` [Example 38, (R)-6-(4-hydroxypiperidin-1-yl)-N-(5-(3-hydroxypiperidin-1-yl)-2-morpholinothiazolo[4,5-b]pyridin-6-yl)picolinamide], the inhibition at 0.1 µM under setting [1] was 98%. The inhibition at 1 µM under setting [2] is 99%.

On to `O=C(Nc1cc2sc(N3CCOCC3)nc2nc1N1CCC[C@@H](O)C1)c1cccc(N2CCCCCC2)n1` [Example 39, (R)-6-(azepan-1-yl)-N-(5-(3-hydroxypiperidin-1-yl)-2-morpholinothiazolo[4,5-b]pyridin-6-yl)picolinamide], for which the inhibition at 0.1 µM under setting [1] turned out to be 83%. In addition, the inhibition at 1 µM under setting [2] came out at 98%.

In the case of `O=C(Nc1cc2sc(N3CCOCC3)nc2nc1N1CCC[C@@H](O)C1)c1cccc(N2CCCCC2)n1` [Example 40, (R)-N-(5-(3-hydroxypiperidin-1-yl)-2-morpholinothiazolo[4,5-b]pyridin-6-yl)-6-(piperidin-1-yl)picolinamide], the inhibition at 0.1 µM under setting [1] is 96%. Further, the inhibition at 1 µM under setting [2] was 99%.

As to `Cc1cc(-c2cccc(C(=O)Nc3cc4sc(N5CCOCC5)nc4nc3N3CCC[C@@H](O)C3)n2)ccn1` [Example 41, (R)-N-(5-(3-hydroxypiperidin-1-yl)-2-morpholinothiazolo[4,5-b]pyridin-6-yl)-2′-methyl-[2,4′-bipyridine]-6-carboxamide], under setting [1], the inhibition at 0.1 µM stood at 92%. Further, under setting [2], the inhibition at 1 µM came to 98%.

As for `O=C(Nc1cc2sc(N3CCOCC3)nc2nc1N1CCCCC1)c1cccc(N2CC[C@H](O)C2)n1` [Example 42, (S)-6-(3-hydroxypyrrolidin-1-yl)-N-(2-morpholino-5-(piperidin-1-yl)thiazolo[4,5-b]pyridin-6-yl)picolinamide hydrochloride], the inhibition at 0.1 µM under setting [1] stood at 94%. Also, under setting [2], the inhibition at 1 µM worked out at 98%.

Turning to `Cc1nc2nc(N3CCOCC3)sc2cc1NC(=O)c1cccc(N2CCC(O)C2)n1` (stereo not shown) [Example 43, 6-(3-hydroxypyrrolidin-1-yl)-N-(5-methyl-2-morpholinothiazolo[4,5-b]pyridin-6-yl)picolinamide], under setting [1], the inhibition at 0.1 µM was determined as 50%. Besides, under setting [2], the inhibition at 1 µM was 92%.

Regarding `O=C(Nc1cc2sc(N3CCOCC3)nc2nc1C(F)(F)F)c1cccc(N2CCC(O)C2)n1` (stereo not shown) [Example 44, 6-(3-hydroxypyrrolidin-1-yl)-N-(2-morpholino-5-(trifluoromethyl)thiazolo[4,5-b]pyridin-6-yl)picolinamide], the inhibition at 0.1 µM under setting [1] was 90%. For the same molecule, the inhibition at 1 µM under setting [2] was 96%.

Regarding `O=C(Nc1cc2sc(N3CCOCC3)nc2nc1N1CCCCC1)c1cccc(N2CC3CC2CO3)n1` (stereo not shown) [Example 45, 6-(2-oxa-5-azabicyclo[2.2.1]heptan-5-yl)-N-(2-morpholino-5-(piperidin-1-yl)thiazolo[4,5-b]pyridin-6-yl)picolinamide], the inhibition at 0.1 µM under setting [1] is 95%. In addition, the inhibition at 1 µM under setting [2] is 97%.

Regarding `O=C(Nc1cc2sc(N3CCOCC3)nc2nc1N1CCCCC1)c1cccc(NC2CCC(CO)CC2)n1` (stereo not shown) [Example 46, 6-((4-(hydroxymethyl)cyclohexyl)amino)-N-(2-morpholino-5-(piperidin-1-yl)thiazolo[4,5-b]pyridin-6-yl)picolinamide], under setting [1], the inhibition at 0.1 µM turned out to be 75%. Moreover, the inhibition at 1 µM under setting [2] is 94%.

As for `CCOP(=O)(OCC)O[C@H]1CCN(c2cccc(C(=O)Nc3cc4sc(N5CCOCC5)nc4nc3N3CCCCC3)n2)C1` [Example 47, (S)-diethyl (1-(6-((2-morpholino-5-(piperidin-1-yl)thiazolo[4,5-b]pyridin-6-yl)carbamoyl)pyridin-2-yl)pyrrolidin-3-yl)phosphate], the inhibition at 0.1 µM (read-out: % inhibition of IRAK-4 @0.1 μM) was determined as 18%. In addition, under “read-out: % inhibition of IRAK-4 @ 1 μM”, the inhibition at 1 µM came out at 58%.
